From patent US11022604B2, “Dock derived compound against laminin receptor (37 LR) and uses thereof” (Purdue Research Foundation, priority 2017, dated 2021)

Experiments:
PC-3 cells = experiment: RT-qPCR of PEDF-signaling associated genes; format: cell-based; settings: PC-3, 50 μM, 48 hours
Experimental: Expression of PEDF-signaling associated genes from PC-3 cells treated with 50 μM C3, compared to DMSO control and normalized to GAPDH (n=3, mean±SEM). A Holm-Sidak multiple t test was used for statistical analysis (*p<0.05,**O<0.01, ***<0.001). […] Average tube count for 0.1% DMSO, 0.5% DMSO, and 1, 10 and 50 μM treatment with C3 (n=7, mean±SEM). 1 and 10 μM C3 were compared with respective 0.5% DMSO (unpaired two-tailed t test, ****<0.0001). 50 μM C3 was compared with respective 0.1% DMSO (unpaired two-tailed t test p<0.0001).
RT-qPCR. PC-3 cells were seeded in 6 well plates at 3×10^5 cells per well and incubated with 50 μM C3 or DMSO equivalent in 1×RPMI-1640, 1× anti-anti, and 2% FBS (ThermoFisher) for 48 hours. PC-3 cells were lifted using 20 mM EDTA in 1×DPBS and pelleted before isolating total RNA using the RNeasy Mini Kit (Qiagen). 1 μg of RNA per sample was reverse transcribed using the amfiRivert cDNA synthesis master mix (GenDEPOT). Real-time PCR wells contained 1 μL cDNA template, 2×SYBR Green Master Mix (Applied Biosystems), and 20 μM forward and reverse primers. Primer sequences are provided in Table 2. qRT-PCR was performed on an Eppendorf Realplex 2S (Eppendorf), using: 40×95° C. for 3 mins; 95° C. for 3 s; 60° C. for 30 s; 72° C. for 8 s and analyzed using EP Realplex software (version 2.2). Fold changes were normalized to GAPDH using the ddCT method.
Genes involved in migration/invasion and/or extracellular matrix (ECM) communication also were assayed.

[1] = test system: c-MYC binding site luciferase reporter in PC-3 cells; experiment: c-MYC binding site luciferase reporter assay; format: cell-based; settings: 24 hours
Experimental: FIG. 9. Luciferase promoter Assay in PC-3 cells. PC-3 cells were treated with 1, 10, 50 μM C3 or DMSO control for 24 hours after a 24 transfection with Myc-Luc and B-Gal plasmid to normalize for transfection efficiency (n=6, mean±SEM). Relative light units calculated by normalizing Myc-Luc signal to B-gal signal. A one-way ANOVA was used for statistical analysis (P<0.05). The linear trend was also significant (pose test for linear trend, p, 0.05).
Wound Healing Assay. PC-3 cells were seeded in 6 well plates at 3×10^5 cells per well in complete media until the cells reached confluency. Three horizontal and three vertical scratches were made in the confluent monolayers using a standard 200 μL pipette tip and cellular debris were removed by washing with 1×DPBS three times. 1×RPMI-1640 supplemented with C3 or DMSO was added and cells were incubated for 48 hours as described previously. […] Images were uploaded and analyzed for scratch geometry using the tscratch program (96). First, global thresholding was performed, then individual images were manually inspected for single image threshold adjustment and scratch geometries were quantified. […] The samples were analyzed using the Dionex UltiMate 3000 RSLC Nano System coupled to the Q Exactive™ HF Hybrid Quadrupole-Orbitrap MS (Thermo Scientific). […]

## O=C(c1cc(F)cc2c1OCOC2)N1CCN(C2c3ccccc3-c3ccccc32)CC1 [Compound C3, [4-(9h-fluoren-9-yl)piperazino](6-fluoro-4h-1,3-benzodioxin-8-yl)methanone]
PC-3 cells
  VEGF mRNA, fold change: ~4 FC
  VEGFR2 transcription, fold change: > −15 fold change
  thrombospondin-1 (THBS1) mRNA, fold change: > 10 FC
[1]; PC-3, 50 μM
  reduction of c-myc binding activity (luciferase reporter): 36%
[1]; PC-3, 1 and 10 μM
  effect on c-myc luciferase reporter activity: no significant effect
